Test results published in US20240175865A1, “IMPROVED PROCESSES FOR RATIONALLY-DESIGNING AND PRODUCING BIOMOLECULES” (priority 2020, published 2024).
Where two headings read alike, the source gives them in different places.

Assays:
[1] = molecular target: T1, Escherichia coli EF-Tu, unmodified (SEQ ID NO: 3) (Escherichia coli, UniProt P0CE47); assay: Nucleotide dissociation rate, stopped-flow, unmodified EF-Tu; format: binding; conditions: 20° C., TAKM7
T1 construct: His6 tag (C-terminal SHHHHHH in the listing) (C)

[2] = molecular target: Streptococcus pneumoniae MalX, unlabeled protein (SEQ ID NO: 1); conditions: unlabeled protein (ABBOTT et al. 2010); read-out: measured affinity (KD); cited from earlier work
[3] = molecular target: T2, Streptococcus pneumoniae MalX variant T243C, MDCC conjugate (parent MalX SEQ ID NO: 1) (Streptococcus pneumoniae serotype 4, UniProt P59213, I417L/S91N/T250C); assay: biochemical; format: binding
T2 construct: made in house; host or cells: Escherichia coli BL21(DE3) gold

[4] = molecular target: Streptococcus pneumoniae MalX variant A174C, MDCC conjugate (parent MalX SEQ ID NO: 1) (Streptococcus pneumoniae, UniProt P59213, A181C); format: binding; conditions: 1 μM biosensor
[5] = molecular target: Streptococcus pneumoniae MalX variant E312C, MDCC conjugate (parent MalX SEQ ID NO: 1) (Streptococcus pneumoniae, UniProt P59213, E319C); format: binding; conditions: 1 μM biosensor
[6] = tested on: Yersinia enterocolitica TogB, unmodified protein (SEQ ID NO: 2); conditions: isothermal titration calorimetry; cited from earlier work
[7] = tested on: Yersinia enterocolitica TogB, unmodified protein (SEQ ID NO: 2); conditions: UV-difference spectroscopy; cited from earlier work
[8] = molecular target: T2, Streptococcus pneumoniae MalX variant T243C, MDCC conjugate (parent MalX SEQ ID NO: 1); format: binding; conditions: 1 μM biosensor, 20 μM maltose

In the case of Nc1nc2c(ncn2[C@@H]2O[C@H](COP(=O)(O)OP(=O)(O)O)[C@@H](O)[C@H]2O)c(=O)[nH]1 [GDP, guanosine diphosphate], the koff ([1]; mantGDP complex mixed with excess GTP/GDP, read-out: GDP Dissociation Rate Koff) is reported as 0.002 ± 0.001 s⁻¹.

For Nc1nc2c(ncn2[C@@H]2O[C@H](COP(=O)(O)OP(=O)(O)OP(=O)(O)O)[C@@H](O)[C@H]2O)c(=O)[nH]1 [GTP, guanosine triphosphate], the koff ([1]; mantGTP complex mixed with excess GTP/GDP, read-out: GTP Dissociation Rate koff) was 0.04 ± 0.01 s⁻¹.

In the case of OC[C@H]1O[C@H](O[C@H]2[C@H](O)[C@@H](O)[C@@H](O[C@H]3[C@H](O)[C@@H](O)C(O)O[C@@H]3CO)O[C@@H]2CO)[C@H](O)[C@@H](O)[C@@H]1O (stereo partly shown) [M3, Maltotriose], the Kd [2] is given as 0.8 ± 0.125 µM, the Kd [3] is given as 0.6 ± 0.2 µM and the “fluorescence change upon binding M3” value ([4]; 20 μM M3) is given as “did not show a fluorescence change”. The “fluorescence change upon binding M3” value ([5]; 20 μM M3) was “did not show a fluorescence change”.

For O=C(O)[C@H]1O[C@H](O[C@@H]2[C@H](O)[C@@H](O)C(O)O[C@@H]2C(=O)O)[C@H](O)[C@@H](O)[C@H]1O (stereo partly shown) [digalUA, digalacturonic acid], the Kd [6] is given as 16 ± 2 µM and the Kd [7] is given as 11.8 ± 0.5 µM.

In the case of OC[C@H]1O[C@H](O[C@H]2[C@H](O)[C@@H](O)C(O)O[C@@H]2CO)[C@H](O)[C@@H](O)[C@@H]1O (stereo partly shown) [maltose, Maltose], the “fluorescence change in presence of non-specific ligand (maltose)” value [8] is reported as “little to no fluorescence change”, the “fluorescence change in presence of non-specific ligand (maltose)” value ([4]; 20 μM maltose) is reported as “little to no fluorescence change” and the “fluorescence change in presence of non-specific ligand (maltose)” value ([5]; 20 μM maltose) is reported as “little to no fluorescence change”.

For O=C(O)C1=C[C@H](O)[C@@H](O)[C@@H](O[C@@H]2[C@H](O)[C@@H](O)C(O)O[C@@H]2C(=O)O)O1 (stereo partly shown) [unsatdigalUA, 4,5-unsaturated digalacturonic acid], the Kd [6] is given as 5 ± 1 µM and the Kd [7] is given as 3.2 ± 0.1 µM.
